How the values were obtained:
[1] = molecular target: 5-hydroxytryptamine receptor 1B (Homo sapiens) (UniProt P28222); assay: 5-HT1B CEREP panel; conditions: Compound concentration 1.0 uM
[2] = molecular target: Focal adhesion kinase 1 (Homo sapiens) (UniProt Q05397); assay: FAK(h) Millipore kinase panel; conditions: Compound concentration 10.0 uM
[3] = molecular target: 5-hydroxytryptamine receptor 2A (Homo sapiens) (UniProt P28223); assay: 5-HT2A (h) CEREP panel; conditions: Compound concentration 1.0 uM
[4] = Cl- channel CEREP panel; conditions: Compound concentration 1.0 uM
[5] = molecular target: Mitogen-activated protein kinase kinase kinase 9 (Homo sapiens) (UniProt P80192); assay: MLK1(h) Millipore kinase panel; conditions: Compound concentration 10.0 uM
[6] = molecular target: Histamine H2 receptor (Homo sapiens) (UniProt P25021); assay: H2 (h) CEREP panel; conditions: Compound concentration 1.0 uM
[7] = molecular target: Glycogen synthase kinase-3 beta (Homo sapiens) (UniProt P49841); assay: GSK3β(h) Millipore kinase panel; conditions: Compound concentration 10.0 uM
[8] = molecular target: Neuropeptide Y receptor type 1 (Homo sapiens) (UniProt P25929); assay: Y1 (h) CEREP panel; conditions: Compound concentration 1.0 uM
[9] = molecular target: Ribosomal protein S6 kinase beta-1 (Homo sapiens) (UniProt P23443); assay: p70S6K(h) Millipore kinase panel; conditions: Compound concentration 10.0 uM
[10] = molecular target: Interleukin-1 receptor-associated kinase 4 (Homo sapiens) (UniProt Q9NWZ3); assay: IRAK4(h) Millipore kinase panel; conditions: Compound concentration 10.0 uM
[11] = molecular target: Tyrosine-protein kinase BTK (Homo sapiens) (UniProt Q06187); assay: BTK(h) Millipore kinase panel; conditions: Compound concentration 10.0 uM
[12] = molecular target: Beta-1 adrenergic receptor (Homo sapiens) (UniProt P08588); assay: beta 1 (h) CEREP panel; conditions: Compound concentration 1.0 uM
[13] = molecular target: Ribosomal protein S6 kinase alpha-5 (Homo sapiens) (UniProt O75582); assay: MSK1(h) Millipore kinase panel; conditions: Compound concentration 10.0 uM
[14] = molecular target: Endothelin-1 receptor (Homo sapiens) (UniProt P25101); assay: ETA (h) CEREP panel; conditions: Compound concentration 1.0 uM
[15] = molecular target: Proto-oncogene tyrosine-protein kinase Src (Homo sapiens) (UniProt P12931); assay: cSRC(h) Millipore kinase panel; conditions: Compound concentration 10.0 uM
[16] = molecular target: Calcium/calmodulin-dependent protein kinase type 1 (Homo sapiens) (UniProt Q14012); assay: CaMKI(h) Millipore kinase panel; conditions: Compound concentration 10.0 uM
[17] = molecular target: Kappa-type opioid receptor (Homo sapiens) (UniProt P41145); assay: kappa (h) CEREP panel; conditions: Compound concentration 1.0 uM
[18] = molecular target: LIM domain kinase 1 (Homo sapiens) (UniProt P53667); assay: LIMK1(h) Millipore kinase panel; conditions: Compound concentration 10.0 uM
[19] = molecular target: Casein kinase I isoform delta (Homo sapiens) (UniProt P48730); assay: CK1δ(h) Millipore kinase panel; conditions: Compound concentration 10.0 uM
[20] = molecular target: RAC-alpha serine/threonine-protein kinase (Homo sapiens) (UniProt P31749); assay: PKBα(h) Millipore kinase panel; conditions: Compound concentration 10.0 uM
[21] = sst (non-selective) CEREP panel; conditions: Compound concentration 1.0 uM
[22] = molecular target: Muscarinic acetylcholine receptor M2 (Homo sapiens) (UniProt P08172); assay: M2 (h) CEREP panel; conditions: Compound concentration 1.0 uM
[23] = molecular target: Tyrosine-protein kinase Fer (Homo sapiens) (UniProt P16591); assay: Fer(h) Millipore kinase panel; conditions: Compound concentration 10.0 uM
[24] = molecular target: Neurotensin receptor type 1 (Homo sapiens) (UniProt P30989); assay: NT1 (h) (NTS1) CEREP panel; conditions: Compound concentration 1.0 uM
[25] = K+V channel CEREP panel; conditions: Compound concentration 1.0 uM
[26] = molecular target: Dual specificity protein kinase CLK3 (Homo sapiens) (UniProt P49761); assay: CLK3(h) Millipore kinase panel; conditions: Compound concentration 10.0 uM
[27] = Ca2+ channel CEREP panel; conditions: Compound concentration 1.0 uM
[28] = molecular target: Neuropeptide Y receptor type 2 (Homo sapiens) (UniProt P49146); assay: Y2 (h) CEREP panel; conditions: Compound concentration 1.0 uM
[29] = molecular target: Sodium-dependent dopamine transporter (Homo sapiens) (UniProt Q01959); assay: DA transporter (h) CEREP panel; conditions: Compound concentration 1.0 uM
[30] = molecular target: Testis-specific serine/threonine-protein kinase 1 (Homo sapiens) (UniProt Q9BXA7); assay: TSSK1(h) Millipore kinase panel; conditions: Compound concentration 10.0 uM
[31] = GABA (non-selective) CEREP panel; conditions: Compound concentration 1.0 uM
[32] = Na+ channel (site 2) CEREP panel; conditions: Compound concentration 1.0 uM
[33] = molecular target: RAC-gamma serine/threonine-protein kinase (Homo sapiens) (UniProt Q9Y243); assay: PKBγ(h) Millipore kinase panel; conditions: Compound concentration 10.0 uM
[34] = molecular target: C-C chemokine receptor type 1 (Homo sapiens) (UniProt P32246); assay: CCR1 (h) CEREP panel; conditions: Compound concentration 1.0 uM
[35] = molecular target: Epidermal growth factor receptor (Homo sapiens) (UniProt P00533); assay: EGFR(h) Millipore kinase panel; conditions: Compound concentration 10.0 uM
[36] = molecular target: Serine/threonine-protein kinase D2 (Homo sapiens) (UniProt Q9BZL6); assay: PKD2(h) Millipore kinase panel; conditions: Compound concentration 10.0 uM
[37] = molecular target: Serine/threonine-protein kinase pim-1 (Homo sapiens) (UniProt P11309); assay: Pim-1(h) Millipore kinase panel; conditions: Compound concentration 10.0 uM
[38] = molecular target: D(1A) dopamine receptor (Homo sapiens) (UniProt P21728); assay: D1 (h) CEREP panel; conditions: Compound concentration 1.0 uM
[39] = molecular target: 5-hydroxytryptamine receptor 1A (Homo sapiens) (UniProt P08908); assay: 5-HT1A (h) CEREP panel; conditions: Compound concentration 1.0 uM
[40] = molecular target: Cyclin-dependent kinase 2 (Homo sapiens) (UniProt P24941); assay: CDK2/cyclinA(h) Millipore kinase panel; conditions: Compound concentration 10.0 uM
[41] = molecular target: Melanocortin receptor 4 (Homo sapiens) (UniProt P32245); assay: MC4 (h) CEREP panel; conditions: Compound concentration 1.0 uM
[42] = molecular target: High affinity nerve growth factor receptor (Homo sapiens) (UniProt P04629); assay: TrkA(h) Millipore kinase panel; conditions: Compound concentration 10.0 uM
[43] = molecular target: Cholecystokinin receptor type A (Homo sapiens) (UniProt P32238); assay: CCKA (h) (CCK1) CEREP panel; conditions: Compound concentration 1.0 uM
[44] = molecular target: Delta-type opioid receptor (Homo sapiens) (UniProt P41143); assay: delta (h) CEREP panel; conditions: Compound concentration 1.0 uM
[45] = molecular target: 5-hydroxytryptamine receptor 7 (Homo sapiens) (UniProt P34969); assay: 5-HT7 (h) CEREP panel; conditions: Compound concentration 1.0 uM
[46] = molecular target: Sodium-dependent noradrenaline transporter (Homo sapiens) (UniProt P23975); assay: NE transporter (h) CEREP panel; conditions: Compound concentration 1.0 uM
[47] = molecular target: D(2) dopamine receptor (Homo sapiens) (UniProt P14416); assay: D2 (h) CEREP panel; conditions: Compound concentration 1.0 uM
[48] = molecular target: Muscle, skeletal receptor tyrosine-protein kinase (Homo sapiens) (UniProt O15146); assay: MuSK(h) Millipore kinase panel; conditions: Compound concentration 10.0 uM
[49] = molecular target: cAMP-dependent protein kinase catalytic subunit alpha (Homo sapiens) (UniProt P17612); assay: PKA(h) Millipore kinase panel; conditions: Compound concentration 10.0 uM
[50] = molecular target: cGMP-dependent protein kinase 1 (Homo sapiens) (UniProt Q13976); assay: PKG1α(h) Millipore kinase panel; conditions: Compound concentration 10.0 uM

Chain of High affinity nerve growth factor receptor (Homo sapiens) (P04629 33-796 limits assumed): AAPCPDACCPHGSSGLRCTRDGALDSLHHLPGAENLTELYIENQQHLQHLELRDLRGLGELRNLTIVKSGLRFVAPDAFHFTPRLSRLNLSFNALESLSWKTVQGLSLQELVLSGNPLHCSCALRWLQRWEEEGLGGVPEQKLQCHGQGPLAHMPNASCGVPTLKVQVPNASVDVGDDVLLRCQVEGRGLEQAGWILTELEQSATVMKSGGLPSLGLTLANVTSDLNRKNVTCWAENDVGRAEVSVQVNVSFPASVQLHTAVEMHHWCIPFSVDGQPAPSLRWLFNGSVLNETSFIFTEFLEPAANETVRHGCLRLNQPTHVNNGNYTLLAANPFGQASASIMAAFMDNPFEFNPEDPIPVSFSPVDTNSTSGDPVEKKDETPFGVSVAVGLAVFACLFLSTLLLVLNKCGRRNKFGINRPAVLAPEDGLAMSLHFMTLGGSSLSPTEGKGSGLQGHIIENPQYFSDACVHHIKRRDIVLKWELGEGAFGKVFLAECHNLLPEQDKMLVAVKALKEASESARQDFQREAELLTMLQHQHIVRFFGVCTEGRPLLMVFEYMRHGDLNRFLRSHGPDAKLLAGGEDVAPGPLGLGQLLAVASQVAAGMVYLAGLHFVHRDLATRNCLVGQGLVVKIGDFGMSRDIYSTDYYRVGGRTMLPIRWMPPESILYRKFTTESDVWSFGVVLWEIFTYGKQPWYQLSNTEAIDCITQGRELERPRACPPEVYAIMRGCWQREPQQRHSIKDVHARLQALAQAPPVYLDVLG
Chain of Serine/threonine-protein kinase D2 (Homo sapiens) (Q9BZL6 whole entry): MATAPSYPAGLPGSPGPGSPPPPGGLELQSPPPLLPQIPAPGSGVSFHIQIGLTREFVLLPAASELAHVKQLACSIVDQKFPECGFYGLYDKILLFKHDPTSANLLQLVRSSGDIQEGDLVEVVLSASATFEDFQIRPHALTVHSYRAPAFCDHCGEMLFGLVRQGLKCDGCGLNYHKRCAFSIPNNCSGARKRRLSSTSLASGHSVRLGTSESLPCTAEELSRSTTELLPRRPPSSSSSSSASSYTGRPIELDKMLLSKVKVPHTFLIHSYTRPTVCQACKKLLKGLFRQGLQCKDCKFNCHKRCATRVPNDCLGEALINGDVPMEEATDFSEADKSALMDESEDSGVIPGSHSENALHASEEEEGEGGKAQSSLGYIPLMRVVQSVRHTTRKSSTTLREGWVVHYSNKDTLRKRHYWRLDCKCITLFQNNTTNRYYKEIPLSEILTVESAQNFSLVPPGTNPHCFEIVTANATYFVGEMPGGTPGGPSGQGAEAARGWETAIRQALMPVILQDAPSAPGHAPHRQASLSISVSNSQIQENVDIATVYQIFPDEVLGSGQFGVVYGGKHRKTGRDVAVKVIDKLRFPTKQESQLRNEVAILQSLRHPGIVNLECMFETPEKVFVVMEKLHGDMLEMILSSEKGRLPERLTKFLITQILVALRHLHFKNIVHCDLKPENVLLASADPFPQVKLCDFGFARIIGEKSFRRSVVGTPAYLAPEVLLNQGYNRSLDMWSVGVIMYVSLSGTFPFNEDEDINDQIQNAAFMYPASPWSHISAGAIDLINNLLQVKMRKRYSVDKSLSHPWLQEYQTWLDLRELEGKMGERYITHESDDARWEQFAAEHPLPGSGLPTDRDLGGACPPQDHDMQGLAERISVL
Chain of Interleukin-1 receptor-associated kinase 4 (Homo sapiens) (Q9NWZ3 whole entry): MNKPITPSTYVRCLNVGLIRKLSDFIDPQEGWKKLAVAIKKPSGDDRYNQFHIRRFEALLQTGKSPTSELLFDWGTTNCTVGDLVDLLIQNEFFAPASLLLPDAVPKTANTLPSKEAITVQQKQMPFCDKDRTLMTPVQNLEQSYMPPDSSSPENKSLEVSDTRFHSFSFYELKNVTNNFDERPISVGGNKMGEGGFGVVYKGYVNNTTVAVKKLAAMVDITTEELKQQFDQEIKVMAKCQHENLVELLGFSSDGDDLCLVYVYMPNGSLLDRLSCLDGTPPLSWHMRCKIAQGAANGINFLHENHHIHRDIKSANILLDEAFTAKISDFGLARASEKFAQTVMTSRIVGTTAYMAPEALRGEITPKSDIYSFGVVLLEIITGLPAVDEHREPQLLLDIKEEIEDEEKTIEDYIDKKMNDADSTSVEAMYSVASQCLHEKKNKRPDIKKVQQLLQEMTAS
Chain of Tyrosine-protein kinase Fer (Homo sapiens) (P16591 whole entry, looked up): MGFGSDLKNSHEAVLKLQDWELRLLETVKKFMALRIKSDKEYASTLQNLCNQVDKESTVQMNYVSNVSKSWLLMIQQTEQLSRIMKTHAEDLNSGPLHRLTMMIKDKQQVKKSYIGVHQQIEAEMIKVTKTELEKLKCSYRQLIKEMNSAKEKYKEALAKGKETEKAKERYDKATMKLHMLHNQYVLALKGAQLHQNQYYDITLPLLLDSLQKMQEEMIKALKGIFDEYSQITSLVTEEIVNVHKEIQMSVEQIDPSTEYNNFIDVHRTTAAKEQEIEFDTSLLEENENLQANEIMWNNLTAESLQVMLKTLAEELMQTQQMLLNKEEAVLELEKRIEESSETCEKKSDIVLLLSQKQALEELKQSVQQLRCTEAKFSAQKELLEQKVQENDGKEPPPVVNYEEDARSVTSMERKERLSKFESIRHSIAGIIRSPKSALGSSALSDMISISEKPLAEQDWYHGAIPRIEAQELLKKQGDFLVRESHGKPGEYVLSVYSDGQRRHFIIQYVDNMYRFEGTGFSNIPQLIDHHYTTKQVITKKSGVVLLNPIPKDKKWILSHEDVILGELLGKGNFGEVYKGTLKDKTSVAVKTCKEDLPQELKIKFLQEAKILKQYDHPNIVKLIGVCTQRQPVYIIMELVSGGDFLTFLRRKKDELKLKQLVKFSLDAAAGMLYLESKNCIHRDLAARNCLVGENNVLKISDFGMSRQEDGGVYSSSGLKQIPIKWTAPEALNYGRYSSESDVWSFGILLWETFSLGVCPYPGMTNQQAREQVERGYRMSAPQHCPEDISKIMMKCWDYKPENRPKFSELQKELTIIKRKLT
Chain of Testis-specific serine/threonine-protein kinase 1 (Homo sapiens) (Q9BXA7 whole entry): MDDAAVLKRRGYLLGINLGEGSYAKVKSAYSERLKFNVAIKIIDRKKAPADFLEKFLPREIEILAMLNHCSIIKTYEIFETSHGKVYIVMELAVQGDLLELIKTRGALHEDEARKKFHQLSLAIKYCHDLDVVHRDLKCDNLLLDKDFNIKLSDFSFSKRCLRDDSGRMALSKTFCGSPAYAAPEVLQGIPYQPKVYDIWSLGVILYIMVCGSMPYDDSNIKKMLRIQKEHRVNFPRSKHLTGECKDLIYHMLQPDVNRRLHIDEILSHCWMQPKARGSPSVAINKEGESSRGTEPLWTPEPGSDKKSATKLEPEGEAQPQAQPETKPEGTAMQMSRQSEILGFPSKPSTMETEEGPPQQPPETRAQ
Chain of Casein kinase I isoform delta (Homo sapiens) (P48730 whole entry, looked up, canonical isoform): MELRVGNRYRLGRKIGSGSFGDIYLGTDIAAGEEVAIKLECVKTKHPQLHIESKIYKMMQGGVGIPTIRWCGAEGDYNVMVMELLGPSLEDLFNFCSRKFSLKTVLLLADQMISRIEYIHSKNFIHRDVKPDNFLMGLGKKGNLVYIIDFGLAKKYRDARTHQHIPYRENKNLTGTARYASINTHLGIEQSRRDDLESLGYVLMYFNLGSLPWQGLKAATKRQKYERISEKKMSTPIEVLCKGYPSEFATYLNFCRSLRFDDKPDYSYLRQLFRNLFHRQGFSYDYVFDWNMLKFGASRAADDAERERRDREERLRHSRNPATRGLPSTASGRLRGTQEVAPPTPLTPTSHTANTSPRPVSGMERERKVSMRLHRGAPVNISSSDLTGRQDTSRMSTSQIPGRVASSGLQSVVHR
Chain of Kappa-type opioid receptor (Homo sapiens) (P41145 whole entry, the tested form may be a part): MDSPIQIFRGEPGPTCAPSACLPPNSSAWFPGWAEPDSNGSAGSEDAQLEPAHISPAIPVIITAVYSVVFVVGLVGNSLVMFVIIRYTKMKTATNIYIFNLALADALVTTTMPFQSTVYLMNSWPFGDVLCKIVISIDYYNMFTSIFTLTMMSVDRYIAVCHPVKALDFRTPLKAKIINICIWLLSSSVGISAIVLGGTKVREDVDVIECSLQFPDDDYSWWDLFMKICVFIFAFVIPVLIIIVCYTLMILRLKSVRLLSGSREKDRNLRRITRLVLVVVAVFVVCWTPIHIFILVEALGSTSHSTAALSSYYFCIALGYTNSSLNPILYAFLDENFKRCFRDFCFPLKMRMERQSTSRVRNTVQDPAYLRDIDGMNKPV
Chain of Muscarinic acetylcholine receptor M2 (Homo sapiens) (P08172 whole entry): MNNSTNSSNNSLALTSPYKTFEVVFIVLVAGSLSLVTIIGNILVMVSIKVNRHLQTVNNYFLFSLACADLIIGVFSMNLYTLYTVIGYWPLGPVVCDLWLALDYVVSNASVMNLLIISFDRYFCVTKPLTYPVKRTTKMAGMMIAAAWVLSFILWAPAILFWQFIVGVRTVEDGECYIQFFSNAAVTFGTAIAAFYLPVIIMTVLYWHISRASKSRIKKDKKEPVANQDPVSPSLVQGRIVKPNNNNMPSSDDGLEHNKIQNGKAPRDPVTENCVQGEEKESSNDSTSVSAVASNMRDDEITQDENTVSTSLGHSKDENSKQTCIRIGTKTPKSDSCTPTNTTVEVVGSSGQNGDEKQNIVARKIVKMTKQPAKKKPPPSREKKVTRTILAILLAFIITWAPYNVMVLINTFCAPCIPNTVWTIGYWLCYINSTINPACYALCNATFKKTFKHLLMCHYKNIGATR
Chain of Endothelin-1 receptor (Homo sapiens) (P25101 whole entry): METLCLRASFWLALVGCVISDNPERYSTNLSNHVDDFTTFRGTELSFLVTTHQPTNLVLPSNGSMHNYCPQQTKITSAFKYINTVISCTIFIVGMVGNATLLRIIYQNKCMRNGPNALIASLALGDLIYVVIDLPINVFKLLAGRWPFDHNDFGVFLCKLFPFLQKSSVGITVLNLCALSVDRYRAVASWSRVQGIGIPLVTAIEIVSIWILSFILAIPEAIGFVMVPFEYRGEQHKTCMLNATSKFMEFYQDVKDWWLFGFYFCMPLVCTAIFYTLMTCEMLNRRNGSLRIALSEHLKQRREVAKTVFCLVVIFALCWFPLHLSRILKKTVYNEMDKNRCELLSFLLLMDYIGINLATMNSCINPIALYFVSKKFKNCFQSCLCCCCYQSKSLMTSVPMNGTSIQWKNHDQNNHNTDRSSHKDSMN

- inhibition [1]: < 10%
- inhibition [2]: -1%
- inhibition [3]: < 10%
- inhibition [4]: < 10%
- inhibition [5]: 6%
- inhibition [6]: < 10%
- inhibition [7]: 0%
- inhibition [8]: < 10%
- inhibition [9]: 8%
- inhibition [10]: -5%
- inhibition [11]: -9%
- inhibition [12]: < 10%
- inhibition [13]: 6%
- inhibition [14]: 15%
- inhibition [15]: -5%
- inhibition [16]: 3%
- inhibition [17]: < 10%
- inhibition [18]: -10%
- inhibition [19]: 1%
- inhibition [20]: -7%
- inhibition [21]: < 10%
- inhibition [22]: < 10%
- inhibition [23]: -8%
- inhibition [24]: < 10%
- inhibition [25]: < 10%
- inhibition [26]: 9%
- inhibition [27]: < 10%
- inhibition [28]: < 10%
- inhibition [29]: 18%
- inhibition [30]: 16%
- inhibition [31]: < 10%
- inhibition [32]: < 10%
- inhibition [33]: -3%
- inhibition [34]: < 10%
- inhibition [35]: 2%
- inhibition [36]: 8%
- inhibition [37]: 3%
- inhibition [38]: < 10%
- inhibition [39]: < 10%
- inhibition [40]: -3%
- inhibition [41]: < 10%
- inhibition [42]: 13%
- inhibition [43]: < 10%
- inhibition [44]: < 10%
- inhibition [45]: < 10%
- inhibition [46]: 10%
- inhibition [47]: < 10%
- inhibition [48]: -9%
- inhibition [49]: -2%
- inhibition [50]: -2%
SMILES: CC(C)c1cc(N2CC[C@@H](N)C2)nc(N)n1
